Consider 1 compound from patent publication US10376481B2, “Compounds and methods for inhibiting NHE-mediated antiport in the treatment of disorders associated with fluid retention or salt overload and gastrointestinal tract disorders” (ARDELYX, INC, priority 2012, dated 2019).

One series is described as follows: Plasma PK. In kind it is in vivo, Sprague-Dawley rats. Conditions: Sprague-Dawley, rat plasma, oral gavage, nominal dose 15 mg/kg, mean of n=3. Here is the method: Sprague-Dawley rats (n=3) were dosed with test compound by oral gavage. Blood samples were collected at 0.5, 1, 2 and 4 h by retro-orbital bleeds and processed to plasma using K2EDTA as an anticoagulant. Plasma samples were treated with acetonitrile containing an internal standard and precipitated proteins were removed by centrifugation. Supernatants were analyzed by LC-MS/MS and compound concentrations were determined by interpolation from a standard calibration curve prepared in plasma. Accurate recovery of quality control samples was confirmed to accept each analytical run. Table 5 illustrates data from the pharmacokinetic profiling of an example compound, for which pharmacokinetic parameters were determined.

Series [1] concerns apical acid secretion, human ileum monolayer culture. Description: Sustained inhibition of apical acid secretion in human organoid monolayer cell cultures (ileum). Type of series: cell-based. Conditions: 1 μM apical dosing day 6, apical media pH day 8, inhibition of apical acid secretion vs DMSO. Here is the method:
(§1) Basal media (BM) consisted of advanced DMEM/F12 containing 10 mM HEPES (Invitrogen, 15630-080), 1:100 Glutamax (Invitrogen, 35050-061), and 1:100 penicillin/streptomycin (Invitrogen, 15140-122). […] Growth factors used included 50 ng per mL mouse EGF (Peprotech, 315-09), 100 ng per mL mouse noggin (Peprotech, 250-38), 500 ng per mL human R-spondin 1 (R&D, 4645-RS), 100 ng per mL mouse Wnt-3a (R&D, 1324-WN), 20 μM Y-27632 (Tocris, 1254), 10 mM nicotinamide (Sigma, N0636), 500 nM A83-01 (Tocris, 2939), 10 μM SB202190 (Tocris, 1264). Transwells were 0.4 μm pore polyester membrane 24-well Transwell inserts (Corning). Cultures were incubated at 37° C. in 5% CO2.
Human ileum organoids were cultured in WENRNAS (Wnt, EGF, noggin, R-spondin1, Nicotinamide, A83-01, SB202190) and typically grown for 7-12 days before being used to plate monolayer cultures. On day 0, organoid cultures embedded in Matrigel were treated with TrypLE Express to break organoids into small pieces and/or single cells. […]
Each human ileum monolayer culture well was washed twice with fresh SBM on the apical side on day 6 before compound dosing. […] On day 8, apical media pH was measured by pH meter, to determine the ability of example compounds to produce sustained inhibition of NHE3 activity in a human monolayer culture system by preventing proton secretion into the apical compartment.

Series [2] relates to apical acid secretion, human duodenum monolayer culture. Kind of series: Sustained inhibition of apical acid secretion in human organoid monolayer cell cultures (duodenum). Type of series: cell-based. Conditions: 1 μM apical dosing, inhibition of apical acid secretion vs DMSO.
In series [3] the test system is tight junction permeability, human duodenum monolayer culture. Kind of series: Increased trans-epithelial resistance (TEER) in human organoid monolayer cell cultures. In kind it is cell-based. Conditions: 1 μM apical, baseline corrected. Here is the method: as §1
Human duodenum organoids were cultured in WENRNAS (Wnt, EGF, noggin, R-spondin1, Nicotinamide, A83-01, SB202190) and typically grown for 7-12 days before being used to plate monolayer cultures. […]
Each human duodenum monolayer culture well was washed twice with fresh SBM on the apical side on day 6 or day 7 before dosing. […] Transepithelial electrical resistance (TEER) was used as a quantitative technique to measure of tight junction permeability. TEER values were recorded (MERS00002, Millipore) before dosing and 30 mins and 1 hr after dosing for all wells. […] Baseline corrected TEER for each example compound was compared to the average of the DMSO wells and expressed as a percent TEER of vehicle control.

Each structure is given as a SMILES string.

For the compound `CN(C)[C@H]1Cc2c(Cl)cc(Cl)cc2[C@@H]1Oc1ccc(S(=O)(=O)NCCOCCOCCNC(=O)NCCCCNC(=O)NCCOCCOCCNS(=O)(=O)c2ccc(O[C@H]3c4cc(Cl)cc(Cl)c4C[C@@H]3N(C)C)cc2)cc1` [Example 1, (S,S)—N,N′-(10,17-dioxo-3,6,21,24-tetraoxa-9,11,16,18-tetraazahexacosane-1,26-diyl)bis(4-((1S,2S)-4,6-dichloro-2-(dimethylamino)-2,3-dihydro-1H-inden-1-yloxy)benzenesulfonamide)], the Cmax in the series “Plasma PK” (LLOQ 0.2 ng/mL) came out at 1 ng/mL. Also, the AUC in the series “Plasma PK” (samples 0.5-4 h) was less than 3 ng·h/mL. For the same compound, in series [1], the “% inhibition (ileum)” value is given as “B (50-70%)”. In addition, the “% inhibition (duodenum)” value in series [2] was “C (>70%)”. Besides, the “TEER at 30 minutes (% of Vehicle)” value in series [3] (30 mins after dosing) is “B (100-130%)”. Besides, the “TEER at 60 minutes (% of Vehicle)” value in series [3] (1 hr after dosing) is on record as “B (100-130%)”.

As a reminder, the Cmax is the highest concentration seen after dosing. A word on the AUC: it is concentration integrated over time.
